By IC50 is commonly meant the concentration at which inhibition is half-maximal. What is called EC50 is the midpoint of the concentration-response curve.

Data on 14 compounds can be found in patent US8524716B2, “Macrocyclic indoles as hepatitis C virus inhibitors” (priority 2007, dated 2013).

Like-named read-outs stand apart in the source and are kept apart here.

For data set [1] the following is noted: 15-membered ring.
Data set [2] has as its target HCV NS5B (Hepatitis C virus genotype 1b (strain HC-J4), UniProt O92972). Description: biochemical. The class given is biochemical. How it is done:
The cDNA encoding NS5B amino acid 1-570 (HC-J4, genotype 1b, pCV-J4L6S, genebank accession number AF054247) was subcloned into the Nhe I and Xho I restriction sites of pET-21b. Expression of the subsequent His-tagged C-terminal 21 amino acid deleted NS5B was performed as follows:
The NS5B expression construct was transformed into E. coli BL21(DE3) (Novagen, Madison, Wis.). Five milliliters of LB-medium supplemented with ampicillin (50 μg/mL) was inoculated with one colony. When the pre-culture reached an optical density of 0.6 measured at 600 nm, it was transferred to fresh LB-medium supplemented with ampicillin, at a ratio of 1:200. Cells were grown to an optical density at 600 nm of 0.6, after which the expression cultures were shifted to a growth temperature of 20° C. following induction with isopropyl-1-thio-β-D-galactopyranoside and MgCl2 at a final concentration of 0.4 mM and 10 μM, respectively. After ten hours of induction, cells were harvested by centrifugation and resuspended in 20 mM Tris-HCl, pH 7.5, 300 mM NaCl, 10% glycerol, 0.1% NP40, 4 mM MgCl2, 5 mM DTT supplemented with EDTA-free Complete Protease Inhibitor (Roche, Basel, Switzerland). Cell suspensions were disrupted by sonication and incubated with 10-15 mg/L of DNase I (Roche, Basel, Switzerland) for 30 minutes. Cell debris was removed through ultracentrifugation at 30,000×g for 1 hour and clarified cell lysate was flash frozen and stored at −80° C. prior to purification.
Clarified cell lysate was thawed and subsequently loaded onto a 5 mL pre-packed HisTrap FF column equilibrated with 25 mM HEPES, pH 7.5, 500 mM NaCl, 10% glycerol and 5 mM DTT. Proteins were eluted with 500 mM imidazole at a flow rate of 1 mL/min. Fractions containing the protein of interest were applied onto a pre-packed 26/10 HiPrep Desalting Column equilibrated with 25 mM HEPES, pH 7.5, 150 mM NaCl, 10% glycerol and 5 mM DTT. The buffer-exchanged NS5B peak was then applied onto a 20 mL Poly-U Sepharose column. Protein was eluted with an increasing salt gradient and fractions collected. Protein purity was assessed on Nu-PAGE pre-cast gels (Invitrogen, Carlsbad, Calif.). Purified NS5B samples were concentrated using Centri-Prep concentrators (Millipore, Billerica, Mass., USA) and protein concentrations were determined by Bradford assay (Pierce, Rockford, Ill., USA).
Measurement of HCV NS5B polymerization activity was performed by evaluating the amount of radio labeled GTP incorporated by the enzyme in a newly synthesized RNA using heteropolymeric RNA template/primer. The high-throughput RNA dependent RNA polymerase (RdRp) assay was carried out in 384-well plates using 100 nM enzyme, 300 nM 5′-biotinylated oligo(rG13)/poly(rC) primer-template, 600 nM of GTP, and 0.1 μCi of [^3H]GTP in 25 mM Tris-HCl, pH 7.5, 5 mM MgCl2, 25 mM KCl, 17 mM NaCl and 3 mM of dithiothreitol (DTT). Test compounds were dissolved in DMSO. The test compounds were added to the preformed polymerase-template complex, and incubated at room temperature for 15 min before the addition of nucleoside triphosphates (NTP). The 30 μl reaction was terminated after 2 h at 25° C. upon addition of 30 μl A PVT-SPA beads (Amersham Biosciences RPNQ0009, 5 mg/ml in 0.5 M EDTA).

The subject of data set [3] is HCV replicons (NS3-NS5B regions of HCV type 1b) in Huh-Luc cells. Description: HCV replicon assay in Huh-7 luc/neo (Huh-Luc) cells, luciferase readout. The data set is classed as cell-based. As to conditions: Hepatitis C virus, Huh-7, 72 h, three days incubation, luciferase activity. From the text:
The compounds of formula (I) were examined for activity in the inhibition of HCV RNA replication in a cellular assay. […] The cellular assay was based on a bicistronic expression construct, as described by Lohmann et al. (1999) Science vol. 285 pp. 110-113 with modifications described by Krieger et al. (2001) Journal of Virology 75: 4614-4624, in a multi-target screening strategy. In essence, the method was as follows.
The assay utilized the stably transfected cell line Huh-7 luc/neo (hereafter referred to as Huh-Luc). This cell line harbors an RNA encoding a bicistronic expression construct comprising the wild type NS3-NS5B regions of HCV type 1b translated from an Internal Ribosome Entry Site (IRES) from encephalomyocarditis virus (EMCV), preceded by a reporter portion (firefly luciferase), and a selectable marker portion (neo^R, neomycine phosphotransferase). The construct is bordered by 5′ and 3′ NTRs (non-translated regions) from HCV type 1b. Continued culture of the replicon cells in the presence of G418 (neo^R) is dependent on the replication of the HCV RNA. The stably transfected replicon cells that express HCV RNA, which replicates autonomously and to high levels, encoding inter alia luciferase, were used for screening the antiviral compounds.
The replicon cells were plated in 384 well plates in the presence of the test and control compounds which were added in various concentrations. Following an incubation of three days, HCV replication was measured by assaying luciferase activity (using standard luciferase assay substrates and reagents and a Perkin Elmer ViewLux™ ultraHTS microplate imager). […] The inhibitory activity of the compound on luciferase activity was monitored on the Huh-Luc cells, enabling a dose-response curve for each test compound. EC50 values were then calculated, which value represents the amount of the compound required to decrease the level of detected luciferase activity by 50%, or more specifically, the ability of the genetically linked HCV replicon RNA to replicate.
(In general: In antiviral work, replicon cells carry a viral genome segment that copies itself.)

Where [4] appears, read: 100 nM enzyme, [3H]GTP incorporation, 2 h at 25° C., read-out: IC50 (μM) Enzymatic assay.

HCV NS5B, sequence (O92972 2420-3010 limits assumed): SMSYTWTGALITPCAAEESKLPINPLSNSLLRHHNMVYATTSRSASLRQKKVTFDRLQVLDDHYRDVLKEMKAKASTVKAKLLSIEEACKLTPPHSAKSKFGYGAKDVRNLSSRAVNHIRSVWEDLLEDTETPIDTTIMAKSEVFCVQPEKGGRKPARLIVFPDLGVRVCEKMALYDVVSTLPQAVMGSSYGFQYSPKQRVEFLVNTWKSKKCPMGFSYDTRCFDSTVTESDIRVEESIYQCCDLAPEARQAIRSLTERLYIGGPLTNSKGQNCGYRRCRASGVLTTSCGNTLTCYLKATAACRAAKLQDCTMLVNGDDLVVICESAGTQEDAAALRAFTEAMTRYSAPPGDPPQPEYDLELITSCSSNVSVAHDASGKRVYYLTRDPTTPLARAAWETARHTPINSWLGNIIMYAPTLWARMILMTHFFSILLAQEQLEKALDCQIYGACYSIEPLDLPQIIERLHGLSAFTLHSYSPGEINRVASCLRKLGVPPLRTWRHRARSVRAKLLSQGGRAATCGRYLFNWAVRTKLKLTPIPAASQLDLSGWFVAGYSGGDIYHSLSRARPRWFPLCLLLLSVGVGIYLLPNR

`CS(=O)(=O)N1CCN(c2ccc([N+](=O)[O-])cc2COc2ccc(-c3c(C4CCCCC4)c4ccc5cc4n3CC(=O)NCCC=CCCNC5=O)cc2)CC1` displayed a ring closure, isolated yield in data set [1] (rcm bond, Hoveyda-Grubbs 1st gen (2 portions), DCE, 80.0 °C) of 70%. `O=C1Cn2c(-c3ccc(OCc4cc(N5CCCC5=O)ccc4N4CCOCC4)cc3)c(C3CCCCC3)c3ccc(cc32)C(=O)NCCC=CCCN1` showed a ring closure, isolated yield in data set [1] (from C=CCCNC(=O)Cn1c(-c2ccc(OCc3cc(N4CCCC4=O)ccc3N3CCOCC3)cc2)c(C2CCCCC2)c2ccc(C(=O)NCCC=C)cc21, rcm bond, Hoveyda-Grubbs 1st gen (2 portions), DCE, 80.0 °C) of 25%.

On to `CS(=O)(=O)N1CCN(c2ccc(N3CCCC3=O)cc2COc2ccc(-c3c(C4CCCCC4)c4ccc5cc4n3CC(=O)NCCC=CCS(=O)(=O)NC5=O)cc2)CC1` [Cpd 14, 17-Cyclohexyl-18-[4-[2-(4-methanesulfonyl-piperazin-1-yl)-5-(2-oxo-pyrrolidin-1-yl)-benzyloxy]-phenyl]-10,10-dioxo-10λ^6-thia-1,4,11-triaza-tricyclo-[11.5.2.0^16,19]icosa-7,13(20),14,16(19),17-pentaene-3,12-dione], for which the IC50 in data set [2] was 0.88 µM. The EC50 in data set [3] was determined as 2.04 µM. As to `CS(=O)(=O)N1CCN(c2ccc(N3CCCC3=O)cc2COc2ccc(-c3c(C4CCCCC4)c4ccc5cc4n3CC(=O)NCC/C=C\CCNC5=O)c(F)c2)CC1` [Cpd 15, 17-Cyclohexyl-18-[2-fluoro-4-[2-(4-methanesulfonyl-piperazin-1-yl)-5-(2-oxo-pyrrolidin-1-yl)-benzyloxy]-phenyl]-1,4,11-triaza-tricyclo[11.5.2.0^16,19]icosa-7,13(20),14,16(19),17-pentaene-3,12-dione], the IC50 in data set [2] (setting [4]) stood at 1.58 µM. Moreover, the midpoint of the response in data set [3], the EC50, lay at 0.27 µM. The matching figures for `COc1ccc(-c2ccc(Cl)cc2)c(-c2ccc3cc(-c4c(C5CCCCC5)c5ccc6cc5n4CC(=O)NCC/C=C\CCNC6=O)ccc3n2)c1` [Cpd 16, 18-[2-(4′-Chloro-4-methoxy-biphenyl-2-yl)-quinolin-6-yl]-17-cyclohexyl-1,4,11-triaza-tricyclo[11.5.2.0^16,19]icosa-7,13(20),14,16(19),17-pentaene-3,12-dione]: 1.44 µM and 17.6 µM. The matching figures for `Cc1nc(C)c(-c2ccc3cc(-c4c(C5CCCCC5)c5ccc6cc5n4CC(=O)NCC/C=C\CCNC6=O)ccc3n2)s1` [Cpd 17, 17-Cyclohexyl-18-[2-(2,4-dimethyl-thiazol-5-yl)-quinolin-6-yl]-1,4,11-triaza-tricyclo[11.5.2.0^16,18]icosa-7,13(20),14,16(19),17-pentaene-3,12-dione]: 2.7 µM and 5.39 µM. For `Cc1nc(C)c(-c2ccc3cc(-c4c(C5CCCCC5)c5ccc6cc5n4CC(=O)NCC/C=C\CS(=O)(=O)NC6=O)ccc3n2)s1` [Cpd 18, 17-cyclohexyl-18-[2-(2,4-dimethyl-thiazol-5-yl)-quinolin-6-yl]-10,10-dioxo-10λ^6-thia-1,4,11-triaza-tricyclo[11.5.2.0^16,19]icosa-7,13(20),14,16(19),17-pentaene-3,12-dione], in data set [2] (setting [4]), the IC50 was 0.04 µM. The compound further returned an EC50 in data set [3] of 12.8 µM. Regarding `CN1C/C=C\CNC(=O)Cn2c(-c3ccc(OCc4cc(N5CCCC5=O)ccc4N4CCN(S(C)(=O)=O)CC4)cc3F)c(C3CCCCC3)c3ccc(cc32)C(=O)NS1(=O)=O` [Cpd 19, 17-cyclohexyl-18-(2-fluoro-4-(2-(4-methanesulfonyl-piperazin-1-yl)-5-(2-oxo-pyrrolidin-1-yl)-benzyloxy)-phenyl)-9-methyl-10,10-dioxo-10λ^6-thia-1,4,9,11-tetraaza-tricyclo[11.5.2.0^16,19]icosa-6,13(20),14,16(19),17-pentaene-3,12-dione], the concentration for half-maximal inhibition (IC50) in data set [2] (setting [4]) was 0.042 µM. The compound also yielded a half-maximal effective concentration (EC50) in data set [3] of 2.36 µM. For the compound `CN1CCCCCNC(=O)Cn2c(-c3ccc(Cl)cc3)c(C3CCCCC3)c3ccc(cc32)C(=O)NS1(=O)=O` [Cpd 21, 19-(4-Chloro-phenyl)-18-cyclohexyl-10-methyl-11,11-dioxo-11λ^6-thia-1,4,10,12-tetraaza-tricyclo[12.5.2.017,20]henicosa-14(21),15,17(20),18-tetraene-3,13-dione], the IC50 in data set [2] (setting [4]) was found to be 0.19 µM. The same compound yielded an EC50 in data set [3] of 0.59 µM. As for `CN1C/C=C\CN(C)S(=O)(=O)NC(=O)c2ccc3c(C4CCCCC4)c(-c4ccc(Cl)cc4)n(c3c2)CC1=O` [Cpd 23, 18-(4-Chloro-phenyl)-17-cyclohexyl-4,9-dimethyl-10,10-dioxo-10λ^6-thia-1,4,9,11-tetraaza-tricyclo[11.5.2.016,19]icosa-6,13(20),14,16(19),17-pentaene-3,12-dione], the IC50 in data set [2] (setting [4]) came to 0.45 µM. Also, the EC50 in data set [3] worked out at 1.08 µM. For `CN1CCCCN(C)S(=O)(=O)NC(=O)c2ccc3c(C4CCCCC4)c(-c4ccc(Cl)cc4)n(c3c2)CC1=O` [Cpd 24, 18-(4-Chloro-phenyl)-17-cyclohexyl-4,9-dimethyl-10,10-dioxo-10λ^6-thia-1,4,9,11-tetraaza-tricyclo[11.5.2.016,19]icosa-13(20),14,16(19),17-tetraene-3,12-dione], the ring closure, isolated yield in data set [1] (amide bond) was determined as 12%. Further, the EC50 in data set [3] was determined as 0.53 µM.

Turning to `COc1ccc(-c2c(C3CCCCC3)c3ccc4cc3n2CC(=O)NCCCCN(C)S(=O)(=O)NC4=O)cc1` [Cpd 25, 17-Cyclohexyl-18-(4-methoxy-phenyl)-9-methyl-10,10-dioxo-10λ^6-thia-1,4,9,11-tetraaza-tricyclo[11.5.2.016,19]icosa-13(20),14,16(19),17-tetraene-3,12-dione], the IC50 in data set [2] (setting [4]) stood at 0.18 µM. Besides, the EC50 in data set [3] was 1.76 µM.

`COc1ccc(-c2c(C3CCCCC3)c3ccc4cc3n2CC(=O)NCCN(C)CCNS(=O)(=O)NC4=O)cc1` [Cpd 27, 18-Cyclohexyl-19-(4-methoxy-phenyl)-7-methyl-11,11-dioxo-11λ^6-thia-1,4,7,10,12-pentaaza-tricyclo[12.5.2.017,20]henicosa-14(21),15,17(20),18-tetraene-3,13-dione]: the IC50 in data set [2] (setting [4]) was 0.44 µM. The compound further displayed an EC50 in data set [3] of 3.47 µM. As for `CN1CC=CCCNC(=O)Cn2c(-c3ccoc3)c(C3CCCCC3)c3ccc(cc32)C(=O)NS1(=O)=O` [Cpd 29, 18-Cyclohexyl-19-furan-3-yl-10-methyl-11,11-dioxo-11λ^6-thia-1,4,10,12-tetraaza-tricyclo[12.5.2.017,20]henicosa-7,14(21),15,17(20),18-pentaene-3,13-dione], the IC50 in data set [2] (setting [4]) worked out at 0.051 µM. This compound also registered an EC50 in data set [3] of 0.65 µM.
